SMILES strings stand for the structures.

The test concerns T1, Lathyrus cicera amine oxidase (LCAO).
T1 construct: copper/TPQ enzyme
In words: coupled peroxidase assay (AAP/DCHBS, […] nm), initial rates. The test is classed as biochemical. The settings on record: pH 7, 20 mM phosphate, 25 °C, air O2.
The Km is the concentration of substrate that gives half-maximal velocity. As for `NCCc1ccc(O)cc1` [1a], the Michaelis constant (Km) is 600 µM.

For the compound `NCCc1ccccc1` [2a], the Km came out at 1200 µM.

With `COc1ccc(CCN)cc1O` [3a], the Km is 1580 µM.

Regarding `COc1cc(CCN)ccc1O` [4a], the Michaelis constant (Km) is 1310 µM.

Consider `COc1ccc(CCN)cc1OC` [5a], for which the Km is 1000 µM.

In the case of `COc1ccc(CCN)cc1` [6a], the Km was found to be 5370 µM.

As for `COc1cccc(CCN)c1` [7a], the Km was determined as 470 µM.

With `NCCc1ccc2c(c1)OCO2` [8a], the Km worked out at 3830 µM.

As for `NCCc1ccc(Cl)cc1` [10a], the Michaelis-Menten constant (Km) turned out to be 3380 µM.

`NCCN1CCCCC1` [11a]: the Michaelis constant (Km) stood at 420 µM.

For `NCCN1CCOCC1` [12a], the Km came out at 6460 µM.

For `NCCC1CCCCC1` [13a], the Km turned out to be 1440 µM.

For `NCCC1=CCCCC1` [14a], the Km is 1900 µM.

Turning to `NCCCN1CCOCC1` [15a], the Km is 17000 µM.

For `NCCCn1ccnc1` [16a], the Km worked out at 610 µM.

For the compound `NCCCN1CCCC1` [17a], the Km is 2300 µM.

Turning to `CN(C)CCN` [18a], the Michaelis-Menten constant (Km) is 230 µM.

Regarding `CN(C)CCCN` [19a], the Michaelis constant (Km) came to 8800 µM.

These data come from article PMC8533949, “Biocatalytic Production of Aldehydes: Exploring the Potential of Lathyrus cicera Amine Oxidase” (Biomolecules, 2021).
